Measured values: publication PMC7217877, “N-AS-triggered SPMs are direct regulators of microglia in a model of Alzheimer’s disease” (Nature Communications, 2020)
Where “and” joins values, the source holds several entries; their conditions need not be identical. Identical values can stand only once.

Key:
APP/PS1 mice [1] = experiment: RNA seq of microglia from treated mice (Fig 4f-i); type: in vivo, mouse; conditions: N-AS-treated vs vehicle APP/PS1
Method: Transgenic mouse lines over-expressing the hAPP695swe (APP) and presenilin-1M146V (PS1) mutations were originated from GlaxoSmithKline (Harlow, UK)[32] and maintained as described previously. We purchased 5×FAD mice from Jackson Labs (Stock number. 34840-JAX). Because APP/PS1 and 5xFAD mice show sex differences in disease progression, we used only male mice. To examine possible therapeutic effect of N-AS and aspirin in APP/PS1 mice, the N-AS (30 mg kg^−1, Sigma-Aldrich, 01912) was injected daily s.c. for 8 weeks to 7-months-old APP/PS1 mice until the age of 9 months, and aspirin (2 mg kg^−1, Sigma-Aldrich, A5376)[33] was administrated orally to 7-months-old APP/PS1 mice for 8 weeks. […]
Total RNA was isolated in microglia derived from WT, APP/PS1, and APP/PS1 mice treated with N-AS using Trizol reagent (Invitrogen). RNA quality was assessed by Agilent 2100 bioanalyzer using the RNA 6000 Nano Chip (Agilent Technologies, Amstelveen, The Netherlands), and RNA quantification was performed using ND-2000 Spectrophotometer (Thermo Inc., DE, USA). […] Quantification was performed using the library quantification kit using a StepOne Real-Time PCR System (Life Technologies, Inc., USA). […] Then, total RNA-Seq reads were mapped using TopHat software tool in order to obtain bam file (alignment file). […]

APP/PS1 mice [2] = experiment: western blot of synaptophysin, MAP2, synapsin1, PSD95 in cortex (Supplementary Fig 7a-d); type: in vivo, mouse; set-up: synaptophysin (western blot, cortex) / MAP2 (western blot, cortex) / synapsin1 (western blot, cortex): scale not given here
Method: Samples were lysed in RIPA buffer (Cell signaling Technologies), then subjected to SDS-PAGE and transferred to a nitrocellulose membrane. Membranes were blocked with 5% milk, incubated with primary antibody and then incubated with the appropriate horseradish peroxidase-conjugated secondary antibody. […] We performed densitometric quantification using the ImageJ software (National Institutes of Health). Images have been cropped for presentation.
Transgenic mouse lines over-expressing the hAPP695swe (APP) and presenilin-1M146V (PS1) mutations were originated from GlaxoSmithKline (Harlow, UK)[32] and maintained as described previously. We purchased 5×FAD mice from Jackson Labs (Stock number. 34840-JAX). Because APP/PS1 and 5xFAD mice show sex differences in disease progression, we used only male mice. To examine possible therapeutic effect of N-AS and aspirin in APP/PS1 mice, the N-AS (30 mg kg^−1, Sigma-Aldrich, 01912) was injected daily s.c. for 8 weeks to 7-months-old APP/PS1 mice until the age of 9 months, and aspirin (2 mg kg^−1, Sigma-Aldrich, A5376)[33] was administrated orally to 7-months-old APP/PS1 mice for 8 weeks. Also, to confirm possible therapeutic efficacy of N-AS in 5×FAD, the N-AS (30 mg kg^−1, Sigma-Aldrich, 01912) was injected daily s.c. for 4 weeks to 3-months-old 5×FAD mice until the age of 4 months. Block randomization method was used to allocate the animals to experimental groups. To eliminate the bias, we were blinded in experimental progress such as data collection and data analysis. Mice were housed at temperature of 22 °C and a 12 h day/12 h night cycle with free access to tap water and food pellets. All protocols were approved by the Kyungpook National University Institutional Animal Care and Use Committee.

[3] = solubility (stated in discussion); type: physicochemical
COX2 T564A = target: T1, COX2 T564A (Homo sapiens, UniProt P35354, T564A); experiment: filter binding assay of [14C] N-AS to COX2; conditions: 0.2 uM, replicates
T1 construct: His (N); made in house
T1 sequence (P35354 18-604 T564A): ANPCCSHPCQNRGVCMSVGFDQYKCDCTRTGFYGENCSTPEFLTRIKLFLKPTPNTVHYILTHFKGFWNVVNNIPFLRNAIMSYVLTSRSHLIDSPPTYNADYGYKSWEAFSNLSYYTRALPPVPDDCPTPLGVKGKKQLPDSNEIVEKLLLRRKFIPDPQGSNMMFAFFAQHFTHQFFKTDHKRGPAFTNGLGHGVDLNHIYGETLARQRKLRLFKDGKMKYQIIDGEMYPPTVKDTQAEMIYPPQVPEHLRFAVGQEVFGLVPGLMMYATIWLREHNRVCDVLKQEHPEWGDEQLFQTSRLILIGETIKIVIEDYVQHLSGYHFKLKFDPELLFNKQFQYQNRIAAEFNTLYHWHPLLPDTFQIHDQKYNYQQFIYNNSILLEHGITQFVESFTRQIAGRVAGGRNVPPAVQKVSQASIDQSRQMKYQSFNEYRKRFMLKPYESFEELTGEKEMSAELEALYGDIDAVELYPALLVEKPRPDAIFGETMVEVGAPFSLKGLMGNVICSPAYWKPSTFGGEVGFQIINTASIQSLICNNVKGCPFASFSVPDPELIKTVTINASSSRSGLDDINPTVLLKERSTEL

CCCCCCCCCCCCC/C=C/[C@@H](O)[C@H](CO)NC(C)=O [N-AS, N-((2S,3R,E)-1,3-Dihydroxyoctadec-4-en-2-yl)acetamide]
microglial gene expression pattern (RNA seq) (APP/PS1 mice [1]): upregulation of several reactive microglial genes | synaptophysin (western blot, cortex) (APP/PS1 mice [2]; APP/PS1 + N-AS, sFig 7a (sheet untitled)): 2.567 and 3.1595 and 2.9069 and 1.677 and 2.527 and 2.054 | MAP2 (western blot, cortex) (APP/PS1 mice [2]; APP/PS1 + N-AS, sFig 7b (sheet untitled)): 0.7541 and 0.8231 and 0.7626 and 0.741 and 0.7343 and 0.8145 | synapsin1 (western blot, cortex) (APP/PS1 mice [2]; APP/PS1 + N-AS, sFig 7c (sheet untitled)): 0.7506 and 0.7227 and 0.685 and 0.6922 and 0.6413 | PSD95 (western blot, cortex) (APP/PS1 mice [2]; APP/PS1 + N-AS, sFig 7d (sheet untitled)): 0.7284 and 0.7208 and 0.6479 and 0.6548 and 0.6748 and 0.6067 | expression levels of synaptophysin, MAP2, synapsin1, PSD95 (APP/PS1 mice [2]; N-AS vs APP/PS1): restored | solubility, in words [3]: poor solubility | binding velocity (Vbinding) (COX2 T564A): 0.196 nM/min and 0.240 nM/min and 0.096 nM/min
